Among the data in PubChem BioAssay (NCI) are TGI values, retold here.

Some test systems named below: MDA-N; HT29 colon; MOLT-4 leukemia; HOP-62 NSCLC; SW-620 colon; OVCAR-4 ovarian; UO-31 renal; NCI-H226 lung; NCI-H522 lung; ACHN renal; OVCAR-3 ovarian; NCI/ADR-RES ovarian; SF-539 CNS; PC-3 prostate; RPMI-8226 leukemia; NCI-H23 lung; SK-OV-3 ovarian; UACC-62 melanoma.
Assay in all cases: NCI tumour cell line growth inhibition, 48 h

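In this assay, cells in 96-well plates receive the compound at five concentrations for 48 hours. Endpoints are linearly interpolated between the surrounding concentrations. TGI: concentration producing complete growth inhibition.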

Take `CCN(CC)c1ccc2cc(C(=O)Nc3nc(C45CC6CC(CC(C6)C4)C5)cs3)c(=O)oc2c1`: the TGI in the assay on MDA-N, in the assay with HT29 colon, in the assay on MOLT-4 leukemia, in the assay with HOP-62 NSCLC, with SW-620 colon and in the assay on OVCAR-4 ovarian was over 100 µM each time. Also, the TGI with UO-31 renal, with NCI-H226 lung, in the assay on NCI-H522 lung, in the assay on ACHN renal, in the assay on OVCAR-3 ovarian and in the assay with NCI/ADR-RES ovarian was over 100 µM in each case. Also, the TGI with SF-539 CNS, with PC-3 prostate, in the assay on RPMI-8226 leukemia and with NCI-H23 lung was over 100 µM throughout.

As to `CCOC(=O)CCC(NC(=O)c1ccc(Nc2cnc3ccc(C(F)(F)F)cc3n2)cc1)C(=O)OCC` (stereo not drawn), the TGI is over 60.5 µM in the assay on SK-OV-3 ovarian; over 100 µM in the assay on MDA-N; over 100 µM with HT29 colon; over 100 µM in the assay with MOLT-4 leukemia; over 100 µM with HOP-62 NSCLC; over 100 µM with SW-620 colon. Moreover, the TGI in the assay on OVCAR-4 ovarian was over 74.3 µM; in the assay with UO-31 renal it was over 100 µM; in the assay with NCI-H226 lung it was over 100 µM; in the assay with NCI-H522 lung it was over 100 µM; in the assay with ACHN renal it was over 81.2 µM; in the assay on OVCAR-3 ovarian, over 100 µM. Moreover, the TGI in the assay with NCI/ADR-RES ovarian is 52.7 µM; with SF-539 CNS, 39 µM; in the assay with PC-3 prostate it was over 100 µM; with RPMI-8226 leukemia, over 100 µM; in the assay on NCI-H23 lung, over 72.5 µM; in the assay on UACC-62 melanoma it was over 77.5 µM.

Consider `COc1ccc(N=Nc2ccc3oc(=O)c(C(=O)Nc4ccc(Cl)cc4)cc3c2)cc1`, for which the TGI in the assay on SK-OV-3 ovarian, in the assay with MDA-N, in the assay on HT29 colon, in the assay with MOLT-4 leukemia, with HOP-62 NSCLC and in the assay on SW-620 colon was over 10 µM in each case. Besides, the TGI with OVCAR-4 ovarian, in the assay with UO-31 renal, in the assay with NCI-H226 lung, in the assay on NCI-H522 lung, with ACHN renal and with OVCAR-3 ovarian was over 10 µM each time. In addition, the TGI in the assay on NCI/ADR-RES ovarian, in the assay with SF-539 CNS, in the assay with PC-3 prostate, in the assay on RPMI-8226 leukemia and with NCI-H23 lung was over 10 µM each time.

As for `CC1(C)CC(=O)c2c(nc(SSc3nc4c(c(-c5ccc(Br)cc5)c3C#N)C(=O)CC(C)(C)C4)c(C#N)c2-c2ccc(Br)cc2)C1`, the TGI with SK-OV-3 ovarian, in the assay on MDA-N, with HT29 colon, with MOLT-4 leukemia, with HOP-62 NSCLC and with SW-620 colon was over 10 µM each time. For the same molecule, the TGI in the assay with OVCAR-4 ovarian, with UO-31 renal, with NCI-H226 lung, with NCI-H522 lung, with ACHN renal and in the assay with OVCAR-3 ovarian was over 10 µM in each case. Also, the TGI in the assay on NCI/ADR-RES ovarian, in the assay with SF-539 CNS, in the assay with PC-3 prostate, in the assay on RPMI-8226 leukemia and in the assay on NCI-H23 lung was over 10 µM in each case.

As to `CCO/C(O)=C(/C(=N)N1CCCC1)C(=O)Nc1ccc(F)cc1`, the TGI in the assay with SK-OV-3 ovarian, in the assay on MDA-N, with HT29 colon, in the assay with MOLT-4 leukemia, with HOP-62 NSCLC and in the assay with SW-620 colon was over 100 µM each time. For the same molecule, the TGI with OVCAR-4 ovarian, in the assay with NCI-H226 lung, with NCI-H522 lung, in the assay on ACHN renal, with OVCAR-3 ovarian and with NCI/ADR-RES ovarian was over 100 µM throughout. Further, the TGI in the assay with SF-539 CNS was over 100 µM; with PC-3 prostate, over 100 µM; in the assay with RPMI-8226 leukemia, over 100 µM; with NCI-H23 lung, 59.4 µM; in the assay with UACC-62 melanoma, over 100 µM.

Take `COc1cccc(NC(=O)CC(=O)N2N=C(C)C(N=Nc3ccc(S(=O)(=O)CCOS(=O)(=O)O)cc3)C2=O)c1` (stereo not drawn): the TGI is 14 µM with MDA-N; 13.8 µM in the assay on HT29 colon; over 100 µM in the assay with MOLT-4 leukemia; 26 µM with HOP-62 NSCLC; 12.7 µM in the assay on SW-620 colon; 62.5 µM in the assay with OVCAR-4 ovarian. Further, the TGI in the assay with UO-31 renal was 24.5 µM; with NCI-H226 lung it was 27.1 µM; in the assay on NCI-H522 lung, 2.48 µM; in the assay on ACHN renal, 15.7 µM; in the assay with OVCAR-3 ovarian, 17 µM; in the assay on NCI/ADR-RES ovarian it was over 100 µM. The TGI in the assay with SF-539 CNS is 28.3 µM; with PC-3 prostate, 14.5 µM; in the assay with RPMI-8226 leukemia it was 21 µM; with NCI-H23 lung, 20.9 µM.

As to `O=C1CC(c2ccc(Cl)cc2)C2(C(=O)NC(=O)NC2=O)C(c2ccc(Cl)cc2)C1` (stereo not drawn), the TGI in the assay with MDA-N was 49 µM; with HT29 colon, over 75 µM; in the assay with MOLT-4 leukemia it was 41.3 µM; with HOP-62 NSCLC, 69 µM; with SW-620 colon, 67.4 µM; in the assay on OVCAR-4 ovarian it was over 75 µM. For the same molecule, the TGI was over 75 µM in the assay with UO-31 renal; 36.4 µM with NCI-H226 lung; 40.6 µM in the assay with NCI-H522 lung; over 75 µM in the assay with ACHN renal; over 75 µM in the assay on OVCAR-3 ovarian; over 75 µM with NCI/ADR-RES ovarian. Moreover, the TGI is over 75 µM in the assay with SF-539 CNS; over 75 µM in the assay on PC-3 prostate; 32.6 µM with RPMI-8226 leukemia; over 75 µM in the assay on NCI-H23 lung; over 75 µM in the assay with UACC-62 melanoma.
